Our source for the Activity and IC50 values is ChEMBL document CHEMBL4038274, “Design, synthesis and biological evaluation of multifunctional tacrine-curcumin hybrids as new cholinesterase inhibitors with metal ions-chelating and neuroprotective property” (Bioorg Med Chem, 2017).

Data set [1] concerns PC-12. As to the kind of experiment: Neuroprotective activity against Abeta42-induced toxicity in rat PC12 cells assessed as increase in cell viability at 0.1 to 10 uM after 24 hrs by MTT assay. It is filed as functional, cell-based. (In general: Tetrazolium assays rely on reduction of a dye to a coloured formazan, in cell work by metabolically active cells.)
Data set [2] deals with PC-12. As to the kind of experiment: Neuroprotective activity against H202-induced toxicity in rat PC12 cells assessed as increase in cell viability at 0.1 to 10 uM after 24 hrs by MTT assay. The class given is functional, cell-based.
Another data set has as its target Acetylcholinesterase (Torpedo californica, UniProt P04058).
The next data set concerns the target Cholinesterase (Equus caballus, UniProt P81908).
Data set [3] is described as follows: Metal chelating activity assessed as compound-Cu2+ complex formation at 25 uM after 30 mins by UV spectrophotometric analysis. It is filed as functional.
Data set [4] in a line: Metal chelating activity assessed as compound-Fe2+ complex formation at 25 uM after 30 mins by UV-spectrophotometric analysis. The class given is functional.
Data set [5] relates to PC-12. The experiment in a line: Cytotoxicity against rat PC12 cells at 0.1 to 10 uM after 24 hrs by MTT assay. The class given is cell-based. As to conditions: pc-12, 24 h.
For data set [6], the system named is PC-12. The experiment in a line: Neuroprotective activity against H202-induced toxicity in rat PC12 cells assessed as increase in cell viability after 24 hrs by MTT assay. The class given is functional, cell-based.
Data set [7] has as its system PC-12. As to the kind of experiment: Neuroprotective activity against Abeta42-induced toxicity in rat PC12 cells assessed as increase in cell viability after 24 hrs by MTT assay. It is filed as functional, cell-based.

For orientation: IC50 means the concentration needed to halve the response being measured. A low value points to greater potency in that assay.

Molecules are shown by their SMILES. Active and inactive are the calls of the source. No cut-off for these calls is given here.

Acetylcholinesterase, sequence (P04058 whole entry): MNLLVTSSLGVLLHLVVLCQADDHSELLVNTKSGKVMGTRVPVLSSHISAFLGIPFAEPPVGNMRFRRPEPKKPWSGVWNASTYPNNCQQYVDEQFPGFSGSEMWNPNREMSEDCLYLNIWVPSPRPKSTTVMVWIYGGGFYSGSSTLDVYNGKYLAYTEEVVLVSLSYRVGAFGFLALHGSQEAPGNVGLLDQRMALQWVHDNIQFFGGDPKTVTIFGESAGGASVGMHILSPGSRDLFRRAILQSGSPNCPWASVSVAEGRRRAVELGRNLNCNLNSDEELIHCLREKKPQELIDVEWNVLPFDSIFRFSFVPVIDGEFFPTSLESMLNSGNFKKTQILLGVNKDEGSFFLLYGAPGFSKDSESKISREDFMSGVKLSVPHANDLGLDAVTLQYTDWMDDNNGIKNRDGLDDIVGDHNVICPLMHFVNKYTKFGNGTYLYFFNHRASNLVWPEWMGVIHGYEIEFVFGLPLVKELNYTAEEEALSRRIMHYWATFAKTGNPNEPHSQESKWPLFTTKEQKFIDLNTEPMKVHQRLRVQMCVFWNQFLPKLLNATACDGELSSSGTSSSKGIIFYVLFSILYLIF
Cholinesterase, sequence (P81908 whole entry): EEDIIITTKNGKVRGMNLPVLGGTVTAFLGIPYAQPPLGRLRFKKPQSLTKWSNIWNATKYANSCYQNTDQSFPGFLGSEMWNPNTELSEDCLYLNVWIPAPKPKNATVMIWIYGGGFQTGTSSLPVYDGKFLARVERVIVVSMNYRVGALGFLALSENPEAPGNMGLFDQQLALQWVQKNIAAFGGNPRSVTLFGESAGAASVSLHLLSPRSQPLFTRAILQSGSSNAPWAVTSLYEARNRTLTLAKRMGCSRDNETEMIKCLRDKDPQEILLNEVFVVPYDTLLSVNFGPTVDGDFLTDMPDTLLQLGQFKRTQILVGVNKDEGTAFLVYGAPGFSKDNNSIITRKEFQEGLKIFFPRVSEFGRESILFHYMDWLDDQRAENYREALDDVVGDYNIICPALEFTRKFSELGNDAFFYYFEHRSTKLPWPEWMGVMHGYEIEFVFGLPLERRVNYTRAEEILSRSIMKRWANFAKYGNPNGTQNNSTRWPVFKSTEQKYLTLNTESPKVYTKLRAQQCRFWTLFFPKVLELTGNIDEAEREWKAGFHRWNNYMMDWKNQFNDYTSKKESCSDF
Description for Acetylcholinesterase: Inhibition of Torpedo californica AChE using acetylthiocholine iodide as substrate preincubated for 5 mins followed by substrate addition measured at 1 min interval for 3 mins by Ellman's method

Regarding `COc1cc(/C=C/C(=O)CC(=O)/C=C/c2ccc(O)c(OC)c2)ccc1O`, the result with PC-12 [1] and in the data set on PC-12 [2] was Active.
Take `CC(=O)C(Cc1ccc(O)cc1)C(=O)NCCCCNc1c2c(nc3ccccc13)CCCC2` (stereo not drawn): the IC50 stood at 1990 nM against Acetylcholinesterase and 390 nM against Cholinesterase.
As to `COc1cc(/C=C(\C(C)=O)C(=O)NCCCCNc2c3c(nc4ccccc24)CCCC3)ccc1O`, the IC50 against Acetylcholinesterase is 2100 nM; against Cholinesterase it was 2110 nM.
For the compound `COc1cc(/C=C(\C(C)=O)C(=O)NCCCCCCNc2c3c(nc4ccccc24)CCCC3)ccc1O`, the result in data set [3] and in data set [4] was Active. The IC50 on Acetylcholinesterase is 290 nM; against Cholinesterase, 1500 nM.
Turning to `CC(=O)/C(=C\c1ccc(O)cc1)C(=O)NCCCCNc1c2c(nc3ccccc13)CCCC2`, the IC50 against Acetylcholinesterase came out at 3800 nM; against Cholinesterase, 4770 nM.
As for `CC(=O)/C(=C\c1ccc(O)cc1)C(=O)NCCCCCCNc1c2c(nc3ccccc13)CCCC2`, the IC50 was determined as 2950 nM against Acetylcholinesterase and 2240 nM against Cholinesterase.
Take `CC(=O)/C(=C\c1ccc(O)cc1)C(=O)NCCCNc1c2c(nc3ccccc13)CCCC2`: the IC50 worked out at 9640 nM at Acetylcholinesterase and 1600 nM against Cholinesterase.
For the compound `COc1cc(CC(C(C)=O)C(=O)NCCCCCCNc2c3c(nc4ccccc24)CCCC3)ccc1O` (stereo not drawn), the outcome in data set [3] and in data set [4] was Active. Also, the IC50 against Acetylcholinesterase was determined as 80 nM; at Cholinesterase, 220 nM. The values for the Activity result in the data set with PC-12 [5], in the data set with PC-12 [6] and with PC-12 [7] were “Non-Toxic”, “Dose-dependent effect” and “Dose-dependent effect”, respectively.
Turning to `CC(=O)C(Cc1ccc(O)cc1)C(=O)NCCCNc1c2c(nc3ccccc13)CCCC2` (stereo not drawn), the IC50 came out at 8760 nM against Acetylcholinesterase and 830 nM against Cholinesterase.
In the case of `COc1cc(CC(C(C)=O)C(=O)NCCCNc2c3c(nc4ccccc24)CCCC3)ccc1O` (stereo not drawn), the IC50 was found to be 5710 nM at Acetylcholinesterase and 1310 nM against Cholinesterase.
For `CC(=O)CC(=O)NCCCCNc1c2c(nc3ccccc13)CCCC2`, the result in data set [3] and in [4] was Active. The figures for the IC50 against Acetylcholinesterase and against Cholinesterase were 90 nM and 160 nM, respectively.
With `COc1cc(CC(C(C)=O)C(=O)NCCCCNc2c3c(nc4ccccc24)CCCC3)ccc1O` (stereo not drawn), the IC50 was 3680 nM against Acetylcholinesterase and 3380 nM against Cholinesterase.
Consider `COc1cc(/C=C(\C(C)=O)C(=O)NCCCNc2c3c(nc4ccccc24)CCCC3)ccc1O`, for which the IC50 against Acetylcholinesterase stood at 1260 nM; against Cholinesterase, 1870 nM.
As for `CC(=O)CC(=O)NCCCCCCNc1c2c(nc3ccccc13)CCCC2`, the IC50 against Acetylcholinesterase worked out at 570 nM; against Cholinesterase, 220 nM.
As to `CC(=O)CC(=O)NCCNc1c2c(nc3ccccc13)CCCC2`, the IC50 came out at 460 nM on Acetylcholinesterase and 310 nM against Cholinesterase.
As for `CC(=O)CC(=O)NCCCNc1c2c(nc3ccccc13)CCCC2`, the IC50 amounted to 240 nM against Acetylcholinesterase and 60 nM against Cholinesterase.
For the compound `CC(=O)C(Cc1ccc(O)cc1)C(=O)NCCCCCCNc1c2c(nc3ccccc13)CCCC2` (stereo not drawn), the IC50 at Acetylcholinesterase is 130 nM; against Cholinesterase, 200 nM.
